# Measurements reported in article PMC5323330 (SLAS discovery, 2016).
# Assays:
# [1] = system: SERCA; conditions: cited from earlier work
# [2] = system: endoplasmic reticulum [Ca2+] in HEK293 cells expressing D1ER; assay: D1ER calcium FRET sensor, ER calcium content in live cells; type: cell-based, human; conditions: 120 min time point
# [3] = system: cytosolic calcium; conditions: cited from earlier work
compound,measurement,setting,value
"Clc1ccccc1C(c1ccccc1)(c1ccccc1)n1ccnc1 [Clotrimazole, clotrimazole]","SERCA function, earlier report",[1],inhibit SERCA function
Clc1ccc(COC(Cn2ccnc2)c2ccc(Cl)cc2Cl)c(Cl)c1 (stereo not drawn) [Miconazole],ER calcium depletion (decreased D1ER FRET),[2],largest amount of ER calcium depletion
Oc1cc(Cl)ccc1Oc1ccc(Cl)cc1Cl [triclosan],"cytosolic calcium, earlier report",[3],increase cytosolic calcium
